Data reported in patent US20200048208A1, “TREATMENT OF DISEASES OR DISORDERS CAUSED BY INDUCED NFkB TRANSCRIPTIONAL ACTIVITY” (Senex Biotechnology, Inc., priority 2011, published 2020).
Entries after “also recorded” stand apart in the source; their conditions may differ. Non-standard residues stand in square brackets, D forms with d. Residues, ends and D or L forms follow the SMILES beside them. *: point of attachment. Nva = CCC[C@H](N)C(=O)O; Cbz = O=C(OCc1ccccc1)*

What was measured:
[1] = clinical experience (Cavaletti and Jakubowiak, 2010); cited from earlier work
[2] = test system: HT1080-derived NFkB-GFP reporter cell line; assay: Propidium iodide flow cytometry for dead cells; format: cell-based, human; settings: inhibitor 3 hours then 18 hours TNFα (10 ng/ml)
Experimental: (§1) We have compared Senexin A to two known proteasome-targeting NFκB inhibitors, N-tosyl-L-phenylalanine chloromethyl ketone (TPCK) (Ha et al., 2009) and MG115 in regard to their cytotoxicity and their effect on the nuclear translocation of active NFκB. In the experiment shown in FIG. 7, the HT1080-derived NFkB-GFP reporter cell line was seeded in 60 mm plates at 1.5×10^5 cells per plate and cultured overnight before being treated with different NFκB inhibitors at the concentrations indicated in FIG. 7 for 3 hours, followed by 18 hours TNFα (10 ng/ml) stimulation. The treated cells were trypsinized, resuspended in PBS, mixed with 5 μg/ml propidium iodide (PI), and analyzed using LSRII flow cytometer (BD Biosciences) for GFP fluorescence (left panel) and the percentage of dead (PI-positive) cells (right panel).

[3] = test system: TNFα-induced NFκB-dependent transcription; assay: NFkB-GFP reporter flow cytometry after inhibitor and TNFα (GFP fluorescence); format: cell-based, human; settings: HT1080-derived reporter, inhibitor 3 hours then 18 hours TNFα (10 ng/ml)
Experimental: as §1

p50 = assay: TransAM NFκB DNA-binding ELISA of nuclear extracts, p50; format: cell-based, human; settings: HT1080 and HEK293 cells, untreated and TNFα-treated; 5 μM Senexin A, 60 μM TPCK, 10 μM MG115 for 3 hours
Excerpt: (§2) Given the role of NFxB in the induction of transcription by p21 (Poole et al., 2004), we have tested SNX2 for the ability to decrease the amount of active NFκB in the nucleus, a general assay for different known classes of NFκB inhibitors. As shown in FIG. 8 of US patent publication 20080033000, we have found, using ACTIVE MOTIF TransAM™ NFκB p65 Chemi and NFκB p50 Chemi Transcription Factor Assay Kits, that SNX2 had no effect on the amount of p50 or p65 NFκB subunits binding to NFκB consensus sequence in nuclear extracts from HT 1080 cells, untreated or treated with NFκB inducer TNFα.
(§3) The DNA-binding activities of nuclear NFκB proteins were measured by the ELISA-based TransAM NFκB Family Transcriptional Factor Assay Kit (Active Motif) following manufacturer's protocol. HT1080 and HEK293 cells were pretreated with inhibitors (5 μM Senexin A, 60 μM TPCK, 10 μM MG115) for 3 hours and then treated with 10 ng/ml TNF for 30 minutes before nuclear extract preparation with Nuclear Extraction Kit (Active Motif). Nuclear extracts were assayed at 5 μg/well for p65 and 2.5 μg/well for p50 DNA binding.

p65 = assay: TransAM NFκB DNA-binding ELISA of nuclear extracts, p65; format: cell-based, human; settings: HT1080 and HEK293 cells, untreated and TNFα-treated; 5 μM Senexin A, 60 μM TPCK, 10 μM MG115 for 3 hours
Excerpt: as §2, §3

NFκB-inducible genes [4] = assay: QPCR of NFκB-inducible genes in TNFα-treated HEK293 cells; format: cell-based, human; settings: HEK293, 5 μM pretreatment 1 hour, 10 ng/ml TNFα 30 minutes
Experimental: The cells were seeded in 6-well plates at 6×10^5 cells/well in media containing 3% serum and cultured overnight. The next day, cells were pretreated with 5 μM Senexin A or with DMSO vehicle control for 1 hour and treated with or without 10 ng/ml TNFα for 30 minutes. Cells were then lysed for total RNA purification with the RNeasy Kit (Qiagen). For QPCR analysis of NFκB-inducible genes, cDNA was prepared using Maxima First Strand cDNA Synthesis Kit (Thermo Scientific/Fermentas, K1641) and gene expression was measured by QPCR with gene-specific primers, with RPL13A as a normalization standard, using Maxima SYBR Green/ROX qPCR Master Mix (Thermo Scientific/Fermentas, K0223) and ABI Prism 7900HT Detection system (Life technologies).

NFκB-inducible genes [5] = assay: QPCR of NFκB-inducible genes in TNFα-treated wild-type HCT116 cells; format: cell-based, human; settings: wild-type HCT116, 5 μM pretreatment 1 hour, 10 ng/ml TNFα 30 minutes
Experimental: (§4) We have verified the effect of CDK8/19 inhibition on NFκB-mediated induction of transcription in human HCT116 colon carcinoma cells, where we also used the availability of a p21−/− derivative of this cell line (Waldman et al., 1996) to determine if this effect depends on p21. The wild-type and p21−/− HCT116 cells were seeded in 6-well plates at 6×10^5 cells/well in media with 10% serum and cultured overnight. The next day, cells were pretreated with 5 μM Senexin A or with DMSO vehicle control for 1 hour and treated with or without 10 ng/ml TNFα for 30 minutes. Cells were then lysed for RNA purification and QPCR analysis of NFκB-inducible genes.

NFκB-inducible genes [6] = assay: QPCR of NFκB-inducible genes in TNFα-treated p21−/− HCT116 cells; format: cell-based, human; settings: p21−/− HCT116, 5 μM pretreatment 1 hour, 10 ng/ml TNFα 30 minutes
Experimental: as §4

NFκB-dependent promoter [7] = assay: NFκB-GFP reporter assay, TNFα induction (96-well fluorometric); format: cell-based, human; settings: HT1080-based NFκB-GFP reporter cells
Experimental: (§5) We have tested the effects of SNX2-class compounds on NFκB transcriptional activity. These assays were conducted with a reporter cell line that we derived from HT1080 p21-9 cells carrying IPTG-inducible p21 (Chang et al., 1999) after transduction with Cignal Lenti NFκB Reporter lentivirus (SA Biosciences), which expresses GFP from a NFκB-dependent minimal promoter. The reporter cell line was then selected for a high basal level of NFκB-dependent GFP expression, which was further increased by TNFα or upon p21 induction by IPTG.
The ability of SNX2-class compounds to prevent the induction of the NFκB-dependent promoter by p21 was not surprising, since these compounds were identified by their ability to prevent p21-mediated induction of another promoter (CMV) (Chang et al., 2008), and NFκB stimulation by p21 was already known.

NFκB-dependent promoter [8] = assay: NFκB-GFP reporter assay, induction by IPTG-inducible p21 (flow cytometric); format: cell-based, human; settings: HT1080 p21-9 derived NFκB-GFP reporter cells, 50 mM IPTG for 72 hrs, different concentrations
Experimental: as §5

[9] = test system: induction of transcription by p21; settings: at concentrations that inhibit NFκB (Poole et al., 2004); cited from earlier work
[10] = bone loss therapy (Hiligsmann and Reginster, 2010); cited from earlier work

CC(C)C[C@H](NC(=O)[C@H](Cc1ccccc1)NC(=O)c1cnccn1)B(O)O [Bortezomib]
Bortezomib-induced peripheral neuropathy [1]: 37-44 % of patients

CCC[C@@H](C=O)NC(=O)[C@H](CC(C)C)NC(=O)[C@H](CC(C)C)NC(=O)OCc1ccccc1 [MG115, reference compound] (Cbz-Leu-Leu-[Nva]-aldehyde)
fraction of dead (PI-positive) cells [2]: strongly increased the fraction of dead cells | TNFα-induced NFκB-dependent transcription (GFP fluorescence) [3]: inhibited TNFα-induced NFκB-dependent transcription | amount of active p50 (DNA binding) in nuclear extracts (p50): strongly decreased | amount of active p65 (DNA binding) in nuclear extracts (p65): strongly decreased

N#Cc1ccc2ncnc(NCCc3ccccc3)c2c1 [SNX2-1-53]
fraction of dead (PI-positive) cells ([2]; listed as Senexin A): minimal effects on cell viability; also recorded: did not | induction of NFκB-regulated genes by TNFα (NFκB-inducible genes [4]): drastically inhibited | TNFα-induced gene expression (NFκB-inducible genes [5]): inhibited TNFα-induced gene expression to the same degree | TNFα-induced NFκB-dependent transcription (GFP fluorescence) ([3]; listed as Senexin A): inhibits NFκB activation; also recorded: inhibited TNFα-induced NFκB-dependent transcription | amount of active p50 (DNA binding) in nuclear extracts (p50): does not block; also recorded: indistinguishable from the control | TNFα-induced gene expression (NFκB-inducible genes [6]): inhibited TNFα-induced gene expression to the same degree | TNFα-induced NFκB activity (GFP expression normalized by Hoechst 33342) (NFκB-dependent promoter [7]; 10 ng/ml TNFα for 18 hrs): inhibited TNFα-induced NFκB activity | basal NFκB activity (normalized GFP expression) (NFκB-dependent promoter [7]; untreated (no TNFα)): did not significantly inhibit | induction of the NFκB-dependent promoter by p21 (GFP expression) (NFκB-dependent promoter [8]): strongly inhibited | induction of the NFκB-dependent promoter by p21 (GFP expression) (NFκB-dependent promoter [8]; listed as Senexin A): dose dependent inhibition | amount of active p65 (DNA binding) in nuclear extracts (p65): does not block; also recorded: indistinguishable from the control

CC1=C(CC(=O)O)c2cc(F)ccc2/C1=C\c1ccc([S+](C)[O-])cc1 (stereo not shown) [Sulindac]
induction of transcription by p21 [9]: inhibited

N-tosyl-L-phenylalanine chloromethyl ketone [TPCK, reference compound]
fraction of dead (PI-positive) cells [2]: strongly increased the fraction of dead cells | TNFα-induced NFκB-dependent transcription (GFP fluorescence) [3]: inhibited TNFα-induced NFκB-dependent transcription | amount of active p50 (DNA binding) in nuclear extracts (p50): strongly decreased | amount of active p65 (DNA binding) in nuclear extracts (p65): strongly decreased

denosumab
safety profile [10]: good safety profile
